Laboratory results: ChEMBL document CHEMBL1208724, “A new group of oxime carbamates as reversible inhibitors of fatty acid amide hydrolase” (Bioorg Med Chem Lett, 2010)

Target: T1, Fatty-acid amide hydrolase 1 (Mus musculus, UniProt O08914)
T1 sequence (O08914 whole entry): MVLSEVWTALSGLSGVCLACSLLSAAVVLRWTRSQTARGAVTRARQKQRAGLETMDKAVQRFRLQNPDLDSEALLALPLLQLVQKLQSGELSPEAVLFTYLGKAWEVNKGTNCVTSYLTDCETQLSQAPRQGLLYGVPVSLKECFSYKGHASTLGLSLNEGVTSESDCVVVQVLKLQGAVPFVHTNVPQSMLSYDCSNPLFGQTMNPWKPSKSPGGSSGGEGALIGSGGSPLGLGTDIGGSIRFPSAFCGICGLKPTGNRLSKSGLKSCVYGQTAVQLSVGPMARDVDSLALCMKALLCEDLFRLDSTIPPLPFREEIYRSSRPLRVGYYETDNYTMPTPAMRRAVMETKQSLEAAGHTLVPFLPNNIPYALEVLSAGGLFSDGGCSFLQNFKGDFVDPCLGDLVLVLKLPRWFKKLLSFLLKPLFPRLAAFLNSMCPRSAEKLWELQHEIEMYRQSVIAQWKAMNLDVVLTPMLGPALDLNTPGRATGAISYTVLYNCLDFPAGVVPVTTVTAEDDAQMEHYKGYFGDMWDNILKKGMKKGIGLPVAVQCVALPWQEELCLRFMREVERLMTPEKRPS
Test: Inhibition of mouse brain FAAH assessed as conversion of [3H-ethanolamine]AEA to [3H]ethanolamine by scintillation counting

IC50	SMILES
0.22 µM	C/C(=N\OC(=O)N1CCCCC1)c1cccc(-c2ccccc2)c1
> 1 µM	C/C(=N\OC(=O)Nc1cccc2ccccc12)c1ccc(-n2c(C)ccc2C)cc1
0.401 µM	C/C(=N\OC(=O)Nc1cccc2ccccc12)c1ccc(-c2ccccc2)cc1
0.232 µM	C/C(=N\OC(=O)Nc1ccc2sccc2c1)c1cccc(-c2ccccc2)c1
0.116 µM	CCCCCCCCCCCCNC(=O)O/N=C(\C)c1cccc(-c2cccs2)c1
0.76 µM	C/C(=N\OC(=O)Nc1ccccc1)c1ccc(-c2ccccc2)cc1
> 1 µM	C/C(=N\OC(=O)Nc1cccc2ccccc12)c1ccc(-c2cccs2)s1
0.017 µM	C/C(=N\OC(=O)Nc1ccc(F)cc1)c1cccc(-c2ccccc2)c1
0.028 µM	COc1ccc(NC(=O)O/N=C(\C)c2cccc(-c3ccccc3)c2)cc1

SMILES	IC50
C/C(=N\OC(=O)N(C)C)c1ccc(-c2ccccc2)cc1	> 50 µM
